# Measured values: ChEMBL document CHEMBL1147566, “Novel halogenated nitrobenzylthioinosine analogs as es nucleoside transporter inhibitors” (Bioorg Med Chem Lett, 2004)
# Target: T1, Equilibrative nucleoside transporter 1 (Homo sapiens, UniProt Q99808)
# T1 sequence (Q99808 whole entry): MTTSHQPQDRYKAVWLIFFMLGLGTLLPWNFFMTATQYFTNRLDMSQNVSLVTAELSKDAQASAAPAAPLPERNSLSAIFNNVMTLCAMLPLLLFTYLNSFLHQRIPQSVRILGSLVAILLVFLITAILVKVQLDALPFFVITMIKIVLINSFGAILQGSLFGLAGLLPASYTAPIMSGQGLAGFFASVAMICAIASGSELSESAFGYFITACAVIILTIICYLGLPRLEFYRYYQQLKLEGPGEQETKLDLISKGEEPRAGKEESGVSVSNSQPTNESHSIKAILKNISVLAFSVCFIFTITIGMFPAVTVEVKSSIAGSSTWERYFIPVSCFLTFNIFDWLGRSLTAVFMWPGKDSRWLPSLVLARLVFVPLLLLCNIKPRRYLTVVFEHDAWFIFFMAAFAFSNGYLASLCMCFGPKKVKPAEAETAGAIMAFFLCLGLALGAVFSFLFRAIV
# Experiment: Displacement of 5-(SAENTA)-X8-fluorescein from K562 cell nucleoside transporter
# Assay type: cell-based
row,Structure (SMILES),Ki [nM]
1,OC[C@H]1O[C@@H](n2cnc3c(SCc4ccccc4Cl)ncnc32)[C@H](O)[C@@H]1O,99.5
2,OC[C@H]1O[C@@H](n2cnc3c(SCc4ccc(F)cc4)ncnc32)[C@H](O)[C@@H]1O,9.02
3,OC[C@H]1O[C@@H](n2cnc3c(SCc4ccc(Br)cc4)ncnc32)[C@H](O)[C@@H]1O,9.98
4,OC[C@H]1O[C@@H](n2cnc3c(SCc4cccc(Cl)c4)ncnc32)[C@H](O)[C@@H]1O,16
5,OC[C@H]1O[C@@H](n2cnc3c(SCc4cccc(I)c4)ncnc32)[C@H](O)[C@@H]1O,13.8
6,OC[C@H]1O[C@@H](n2cnc3c(SCc4ccccc4Br)ncnc32)[C@H](O)[C@@H]1O,134
7,OC[C@H]1O[C@@H](n2cnc3c(SCc4cccc(Br)c4)ncnc32)[C@H](O)[C@@H]1O,20.5
8,OC[C@H]1O[C@@H](n2cnc3c(SCc4ccc(I)cc4)ncnc32)[C@H](O)[C@@H]1O,3.88
9,OC[C@H]1O[C@@H](n2cnc3c(SCc4ccccc4I)ncnc32)[C@H](O)[C@@H]1O,16.1
10,OC[C@H]1O[C@@H](n2cnc3c(SCc4cccc(F)c4)ncnc32)[C@H](O)[C@@H]1O,11.2
11,OC[C@H]1O[C@@H](n2cnc3c(SCc4ccccc4F)ncnc32)[C@H](O)[C@@H]1O,19.9
12,OC[C@H]1O[C@@H](n2cnc3c(SCc4ccc(Cl)cc4)ncnc32)[C@H](O)[C@@H]1O,14.2
